Tests used:
[1] = biological target: T1, SR1 (Homo sapiens, UniProt Q8IWB7); assay: Recombinant protein binding to derivatised beads: inhibition by free phosphoinositides (FIG. 11); conditions: all lipids at one concentration, relative affinity
T1 construct: Multiple overlapping clones allowed prediction of full-length human ORFs for each protein; EE (N); made in house; host or cells: Sf9 (baculovirus)
T1 sequence (Q8IWB7 1-410): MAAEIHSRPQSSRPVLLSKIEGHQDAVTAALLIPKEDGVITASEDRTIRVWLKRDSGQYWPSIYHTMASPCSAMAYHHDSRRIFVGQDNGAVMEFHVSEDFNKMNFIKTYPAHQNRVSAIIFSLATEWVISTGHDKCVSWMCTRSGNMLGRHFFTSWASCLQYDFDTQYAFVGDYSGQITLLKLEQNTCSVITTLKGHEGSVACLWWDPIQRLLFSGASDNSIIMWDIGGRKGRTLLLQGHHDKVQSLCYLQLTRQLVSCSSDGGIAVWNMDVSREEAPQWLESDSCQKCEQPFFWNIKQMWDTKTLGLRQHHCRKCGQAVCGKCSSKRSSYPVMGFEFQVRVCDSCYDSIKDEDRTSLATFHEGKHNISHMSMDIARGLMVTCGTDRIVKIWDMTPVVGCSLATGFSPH
Description: (§1) FIG. 11. Protein binding to derivatised beads: inhibition by free phosphoinositides. Recombinant proteins (in Cos cell lysates or expressed and purified) were bound to PtdIns(3,4,5)P3 or PtdIns(3,4)P2 beads in the presence of various free phosphoinositides (for details, see Methods). For PIP3-E, a full length construct was expressed in Cos cells while a truncated version (residues 40-437) was purified from E.Coli. […] Unless otherwise indicated, the first lane was loaded with a sample equivalent to 1% (Cos cell lysates) or 10% (purified recombinant proteins) of the protein sample that was incubated with beads. As appropriate, tagged proteins were detected with antibodies (anti-myc, anti-GFP, anti-HIS, or anti-EE; see Methods) or by silver-staining (PIP3-G/H-EE, EE-myosin 1F, GST-cytohesin-4, DAPP1, PIP3-E, MEG-2 and CDC42-GAP). For each protein, the data shown are representative of information collected in 4 independent experiments. […]
(§2) Samples of the supernatants were diluted up to 4-fold in lysis buffer, depending on expression levels, and mixed with indicated concentrations of phosphoinositide in 1 ml (FIG. 11) for 10 min on ice. […] Proteins were eluted with SDS sample buffer, separated by SDS-PAGE and detected by immunoblotting [anti-myc (monoclonal 9E10) or anti-GFP (rabbit polyclonal): Clontech). […]

[2] = biological target: T2, SR3 (Homo sapiens, UniProt Q9HBF4); assay: as above; conditions: all lipids at one concentration, relative affinity
T2 construct: Multiple overlapping clones allowed prediction of full-length human ORFs for each protein; EE (N); made in house; host or cells: Sf9 (baculovirus)
T2 sequence (Q9HBF4 1-777): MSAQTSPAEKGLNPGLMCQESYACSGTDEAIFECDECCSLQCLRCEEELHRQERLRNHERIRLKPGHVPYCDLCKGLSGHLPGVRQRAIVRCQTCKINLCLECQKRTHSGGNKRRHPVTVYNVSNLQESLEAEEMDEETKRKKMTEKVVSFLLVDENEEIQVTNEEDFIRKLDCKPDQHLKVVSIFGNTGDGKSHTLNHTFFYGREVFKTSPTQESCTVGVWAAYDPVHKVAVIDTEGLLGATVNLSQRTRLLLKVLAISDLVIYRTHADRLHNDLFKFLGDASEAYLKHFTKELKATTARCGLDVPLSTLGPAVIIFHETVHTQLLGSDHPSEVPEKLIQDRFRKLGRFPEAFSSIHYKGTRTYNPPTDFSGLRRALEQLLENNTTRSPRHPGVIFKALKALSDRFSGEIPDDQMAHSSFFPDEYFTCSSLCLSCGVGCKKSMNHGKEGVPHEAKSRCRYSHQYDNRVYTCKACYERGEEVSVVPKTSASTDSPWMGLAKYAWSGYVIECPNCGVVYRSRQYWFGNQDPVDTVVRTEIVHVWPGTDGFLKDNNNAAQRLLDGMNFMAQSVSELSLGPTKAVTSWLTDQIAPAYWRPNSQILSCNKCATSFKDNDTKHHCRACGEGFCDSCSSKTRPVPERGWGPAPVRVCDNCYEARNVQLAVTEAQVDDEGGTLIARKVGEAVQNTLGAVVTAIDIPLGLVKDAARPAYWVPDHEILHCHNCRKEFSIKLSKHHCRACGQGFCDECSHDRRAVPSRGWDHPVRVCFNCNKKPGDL
Description: as §1, §2

[3] = biological target: T3, α-tocopherol-transfer protein (ATTP) (Homo sapiens, UniProt P49638); assay: as above; conditions: all lipids at one concentration, relative affinity
T3 construct: His (N); made in house; host or cells: E. coli
T3 sequence (P49638 1-278): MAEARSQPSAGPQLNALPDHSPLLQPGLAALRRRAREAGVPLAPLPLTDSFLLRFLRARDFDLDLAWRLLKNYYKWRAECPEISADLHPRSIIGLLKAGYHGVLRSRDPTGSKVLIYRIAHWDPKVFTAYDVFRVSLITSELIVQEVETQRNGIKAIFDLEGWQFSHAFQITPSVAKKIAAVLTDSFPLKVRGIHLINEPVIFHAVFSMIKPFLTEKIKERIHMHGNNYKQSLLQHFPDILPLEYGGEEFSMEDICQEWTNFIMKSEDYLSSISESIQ
Description: as §1, §2

[4] = Solubility of ω-amino phosphatidic acid in solvents; type: physicochemical; conditions: in a range of solvents; chloroform-methanol-water needed
Procedure: The immobilised PA [1] was prepared by coupling of the ω-amino phosphatidic acid (−), which was synthesised in 7 steps starting from the optically pure protected glycerol derivative (−), with the N-hydroxysuccinimide (NHS) activated ester agarose resin, Affi-Gel 10, as is depicted in Scheme 1. […] Excess resin (ca. 5 equiv. of NHS-groups) was used, resulting in a loading of 80% [2] onto the beads, as determined by the quantification of recovered by 1H-NMR in the presence of an internal standard.
Finally, the PA amine 33 and PtdIns(4,5)P2 amine 34 were coupled to the N-hydroxysuccinimide (NHS)-activated ester resin, Affi-Gel 10, to afford the corresponding affinity matrices 31 and 32. The PtdIns(4,5)P2 modified matrix was prepared in water using excess NaHCO3, by reacting the activated Affi Gel 10 [resin […] (4 mL)] with the amine 34 ([…]) to give a loading of 4.5 mmol as judged from the recovery of the amino phospholipid 34, that was quantified by 500 MHz ^1H-NMR spectroscopy in the presence of myo-inositol orthoformate 43 as the internal standard.

CCCCCCCCCCCCCCCC(=O)OC[C@H](COP(=O)(O)O[C@@H]1[C@H](O)[C@H](OP(=O)(O)O)[C@@H](O)[C@H](O)[C@H]1O)OC(=O)CCCCCCCCCCCCCCC [PtdIns3P]
displacement of SR1 from PtdIns(3,4)P2 beads by free phosphoinositide [1]: most effectively
displacement of SR3 from PtdIns(3,4)P2 beads by free phosphoinositide [2]: most effectively

CCCCCCCCCCCCCCCC(=O)OC[C@H](COP(=O)(O)OC1[C@H](O)[C@H](O)C(OP(=O)(O)O)[C@H](O)[C@H]1O)OC(=O)CCCCCCCCCCCCCCC (some centres unmarked) [PtdIns4P]
displacement of ATTP from PtdIns(3,4)P2 beads by free phosphoinositide [3]: displaced most effectively

CCCCCCCCCCCCCCCC(=O)OC[C@H](COP(=O)(O)O[C@H]1[C@H](O)[C@@H](OP(=O)(O)O)[C@H](O)[C@@H](O)[C@H]1O)OC(=O)CCCCCCCCCCCCCCC [PtdIns5P]
displacement of ATTP from PtdIns(3,4)P2 beads by free phosphoinositide [3]: displaced most effectively

CCCCCCCCCCCCCCCC(=O)O[C@H](COC(=O)CCCCCCCCCCCN)COP(=O)(O)O [[2], 1-O-(12-Amino)dodecanoyl-2-O-hexadecanoyl-sn-glycer-3-ylphosphate]
solubility [4]: poor solubility
